One molecule from article PMC11214487, “YZL-51N functions as a selective inhibitor of SIRT7 by NAD^+ competition to impede DNA damage repair” (iScience, 2024) can be followed below.

One may read the inhibition as the percentage by which the read-out fell short of the control. Usually IC50 stands for the point on the concentration scale where inhibition reaches its midpoint. Broadly, the EC50 is the midpoint of the concentration-response curve.

The target of assay [1] is T1, SIRT7 (Homo sapiens, UniProt Q9NRC8).
T1 construct: His-tagged full length SIRT7 protein expression from BL21 bacterial cells; His; made in house; host or cells: E. coli BL21
T1 sequence (Q9NRC8 1-400): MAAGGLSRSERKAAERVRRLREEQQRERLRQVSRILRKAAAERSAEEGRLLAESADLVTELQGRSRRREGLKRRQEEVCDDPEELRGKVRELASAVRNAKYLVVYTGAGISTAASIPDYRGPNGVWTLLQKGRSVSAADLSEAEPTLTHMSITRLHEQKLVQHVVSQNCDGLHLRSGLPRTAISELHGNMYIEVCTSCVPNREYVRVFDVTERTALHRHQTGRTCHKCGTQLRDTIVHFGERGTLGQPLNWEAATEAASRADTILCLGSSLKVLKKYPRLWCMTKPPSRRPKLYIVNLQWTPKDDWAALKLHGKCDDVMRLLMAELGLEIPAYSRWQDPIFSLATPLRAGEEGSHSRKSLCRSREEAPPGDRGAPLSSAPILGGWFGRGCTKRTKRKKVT
Briefly: Fluor de Lys (FDL) SIRT7 deacetylase assay. The assay is classed as biochemical. From the text:
To assess SIRT7 deacetylase activity using Fluor de Lys (FDL) assays, the peptide […]∗QLAGGK was synthesized and characterized as a substrate using fluorophore 7-methoxycoumarin-4-acetic acid (∗, MCA) (Figures 1A, S1A, and S1B). In the presence of both SIRT7 and NAD^+, a luminescence response was detected in the linear range (y = 31.88x + 2396, R^2 = 0.9742) (Figure 1B). We screened our preserved library of 242 natural products to find potential SIRT7 inhibitors.
For in vitro analysis of SIRT7 deacetylation, the reaction system contained 10 μg His-SIRT7, 0.5 mM NAD^+, 10 μM […](MCA)QLAGGK (synthesized by QYAOBIO; details in the supplementary files), 50 μM potential compound or 3 mM NAM, and assay buffer (10 mM Tris-HCl pH 8.0, 4 mM MgCl2, 0.2 mM DTT and 10% Glycerol). The deacetylation reactions were incubated at 37°C for 90 min. The fluorescence intensity was measured with a microplate reader (Synergy H4 Hybrid Reader, Biotek) at an excitation wavelength of 260 nm and detected at an emission spectrum of 300–600 nm. The IC50 values were calculated at 450 nm emission by GraphPad Prism 8.

Assay [2] deals with T1, SIRT7. In words: Dot blot assay of SIRT7-mediated H3K18ac peptide deacetylation. The assay is classed as biochemical. From the text:
To avoid the bias of the fluorescence assay, we also performed dot blot assays for the effects of natural compounds on SIRT7-mediated deacetylation of H3K18ac peptides in vitro (Figures S2A and S2B). In this system, SIRT7 mediated a dose-dependent deacetylation of H3K18ac (Figure 1D). […] Based on comparisons of all the candidates, we selected YZL-51N as the best for further investigation (Figure 1F). […] Thus, P. americana derived YZL-51N was confirmed as an identified SIRT7 inhibitor using parallel peptide-based screening platforms.
For dot blot assays, the reaction system containing 10 μg His-SIRT7, 0.5 mM NAD^+, 10 μM biotin-H3K18ac peptides and 50 μM potential compound was mixed and incubated at 37°C for 90 min. Samples were transferred to a polyvinylidene difluoride (PVDF) membrane, and then blocked with 5% skimmed milk. The blots were probed with H3K18ac primary antibody at RT for 2 h and then incubated with secondary antibody at RT for 1h. The bands were visualized using ECL substrates (Thermo Fisher, USA) on Tanon 5200SF Imaging System.

The target of the next assay is T2, SIRT1 (Homo sapiens, UniProt Q96EB6).
T2 construct: GST-SIRT1-193-741; GST; purchased Active Motif 7846-50; host or cells: E. coli
T2 sequence (Q96EB6 193-741): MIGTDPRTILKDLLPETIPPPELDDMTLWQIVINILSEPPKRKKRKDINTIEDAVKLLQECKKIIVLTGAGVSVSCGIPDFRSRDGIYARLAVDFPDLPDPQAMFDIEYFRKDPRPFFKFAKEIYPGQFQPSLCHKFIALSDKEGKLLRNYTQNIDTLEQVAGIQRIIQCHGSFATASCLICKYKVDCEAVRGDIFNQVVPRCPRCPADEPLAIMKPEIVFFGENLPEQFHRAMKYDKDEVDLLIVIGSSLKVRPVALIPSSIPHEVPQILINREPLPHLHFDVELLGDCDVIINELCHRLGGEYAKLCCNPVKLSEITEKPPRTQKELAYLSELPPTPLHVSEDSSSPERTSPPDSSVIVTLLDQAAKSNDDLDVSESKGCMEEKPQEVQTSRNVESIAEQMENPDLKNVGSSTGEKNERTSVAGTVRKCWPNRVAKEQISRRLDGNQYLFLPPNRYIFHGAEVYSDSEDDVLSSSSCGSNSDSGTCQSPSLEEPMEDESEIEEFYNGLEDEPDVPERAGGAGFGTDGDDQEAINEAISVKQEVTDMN
Briefly: Protein thermal shift assay. The assay is classed as binding. As to conditions: 10 μM. How it is done:
(§1) The mixture containing SIRT1, SIRT6 or SIRT7 proteins, SYPRO Orange, compounds and buffer (100 mM Tris-HCl, 40 mM NaCl, 10 mM MgCl2, pH=7.4) were added into 0.2 mL PCR tubes for a total volume of 20 μL and placed in an ABI ViiA 7 Real-time PCR System. The temperature ranging from 35.0 to 75.0°C was increased at a rate of 0.5°C/s and the fluorescence intensity was monitored in the ROX channel.

The next assay deals with SIRT6 (Homo sapiens, UniProt Q8N6T7). In words: Protein thermal shift assay. In kind it is binding. Particulars: 10 μM. How it is done:
as §1

For a further assay, the system named is HCT116 xenograft. Briefly: HCT116 xenograft model. The assay is classed as in vivo, BALB/c nude mice. How it is done: For the xenograft models, HCT116 cells (5 x 10^6 in 100 μL of PBS) were inoculated subcutaneously into the dorsal flank of the 4-week-old male BALB/c nude mice. The mice were randomly divided into control, drug treatment, IR treatment and combination treatment groups. Control group was injected with PBS. Drug treatment group was treated with 15 mg/kg YZL-51N every 3 d. In IR treatment group, the tumor site was irradiated with 3 Gy every 3 d. The combination group was treated with both 15 mg/kg YZL-51N and 3 Gy IR. The tumor size was estimated from the measurement of the longest diameter across the tumor and the corresponding perpendicular diameter. Tumor volumes were assessed on indicated days by a caliper and calculated using the formula: volume = (length x width[2])/2.

Where two headings read alike, the source gives them in different places.

SIRT6, sequence (Q8N6T7 whole entry): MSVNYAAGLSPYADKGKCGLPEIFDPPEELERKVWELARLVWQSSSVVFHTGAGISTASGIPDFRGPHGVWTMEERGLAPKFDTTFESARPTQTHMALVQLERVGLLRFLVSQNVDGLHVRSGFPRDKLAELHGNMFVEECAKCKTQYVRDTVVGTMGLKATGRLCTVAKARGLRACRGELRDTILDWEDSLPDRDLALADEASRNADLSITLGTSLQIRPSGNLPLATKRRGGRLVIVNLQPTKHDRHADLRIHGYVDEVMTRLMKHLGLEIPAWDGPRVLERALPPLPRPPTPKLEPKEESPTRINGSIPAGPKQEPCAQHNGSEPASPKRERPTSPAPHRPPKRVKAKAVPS
Procedure for HCT116 cells: Cells were seeded into 96 well plates (4,000 cells/well). […] The cells were then washed and re-cultured in fresh medium for 48 h. […] Formazan were generated by the addition of 100 μL DMSO and shaking for 30 min. The absorbance of samples was measured at 570 nm using a microtiter plate reader (BioTek).

`COC(=O)/C(=C\C(=O)c1ccc(O)c(O)c1)c1ccc(O)c(O)c1` [YZL-51N]: the inhibition at 50 µM at SIRT7 [1] (50 μM compound, 37°C, 90 min) is 71.1%. For the same molecule, the IC50 on SIRT7 [1] (0.5 mM NAD+, 10 μM peptide, read-out: FDL assay SIRT7 inhibition IC50) turned out to be 12.7 µM. The “Rescue of H3K18 acetylation” value on SIRT7 [2] (dot blot screening, 50 μM) is recorded as “rescued H3K18 acetylation”. Also, the EC50 at SIRT7 [2] (read-out: Dot blot assay H3K18ac rescue EC50) is 13.5 µM. Also, the figures for the “Shift in the melting curve” value at SIRT1 and on SIRT6 were 0.45 °C and 1.0 °C, respectively. In addition, in the assay with HCT116 xenograft (15 mg/kg YZL-51N and 3 Gy IR every 3 days), the “Tumor therapy, co-treatment with IR” value is “more effective”. Also, the Tumor volume entry in the assay on HCT116 xenograft (15 mg/kg every 3 days, alone) is “reduction on the tumor volume”. The “Cell proliferation (%, Mean ± SD)” value is recorded as 94.8 ± 5.0% in the assay with HCT116 cells (single agent 5 μM); 86.9 ± 5.7% in the assay with HCT116 cells (single agent 10 μM); 76.4 ± 6.0% in the assay with HCT116 cells (single agent 20 μM); 42.8 ± 4.8% with HCT116 cells (single agent 40 μM); 29.9 ± 5.4% in the assay on HCT116 cells (single agent 80 μM); 17.7 ± 5.3% in the assay on HCT116 cells (single agent 160 μM).
